Article PMC12892976, “Alkylation-based optimization of antifungal FPPS inhibitors yields a potent, broad-spectrum lipophilic zoledronate derivative” (mBio, 2025)
Converted amounts (≈) assume the structure as drawn. Like-named read-outs stand apart in the source and are kept apart here.

Legend:
Saccharomyces cerevisiae [1] = experiment: MIC/MFC broth microdilution (CLSI); format: cell-based; settings: Saccharomyces cerevisiae S288c
Protocol: (§1) Antifungal susceptibility was determined by broth microdilution according to the CLSI guidelines described in M27-Ed4 ([16]). […] MFC was determined by back-plating drug-treated cultures from MIC broths onto SDA plates. The MFC was defined as the lowest concentration from which no colonies could be cultured.

Candida albicans [2] = experiment: MIC/MFC broth microdilution (CLSI); format: cell-based; settings: Candida albicans SC5314
Protocol: as §1

[3] = system: Cryptococcus deuterogattii; experiment: checkerboard drug interaction (FICI, MICc);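 for all read-outs here: simplified diagonal checkerboard screen pairing antifungal drugs with FPPS inhibitors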; format: cell-based; settings: C. deuterogattii; for INH FD (MIC-MICc fold decrease): fold decrease of inhibitor MIC
Protocol: (§2) Drug interactions between antifungals and FPPS inhibitors were investigated using a simplified checkerboard diagonal screening method ([45]). […] FICIs were determined according to the Loewe additivity model ([17]).

Cryptococcus neoformans [4] = experiment: checkerboard drug interaction (FICI, MICc);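 for all read-outs here: antifungal plus FPPS inhibitor pairs tested against Cryptococcus neoformans by simplified diagonal checkerboard screening, FICI computed under the Loewe additivity model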; format: cell-based; settings: C. neoformans; for INH FD (MIC-MICc fold decrease): fold decrease of inhibitor MIC
Protocol: as §2

Saccharomyces cerevisiae [5] = experiment: checkerboard drug interaction (FICI, MICc); format: cell-based; parameters: INH MICc / INH MICc (ITR:INH) / INH MICc (KET:INH) / INH MICc (FLC:INH): unit not given beside the values;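 note: simplified diagonal checkerboard screen pairing antifungals with FPPS inhibitors, FICI calculated under the Loewe additivity model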
Candida glabrata [6] = experiment: checkerboard drug interaction (FICI, MICc);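 for all read-outs here: simplified diagonal checkerboard screen pairing antifungals with FPPS inhibitors, FICI calculated under the Loewe additivity model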; format: cell-based; settings: C. glabrata; for INH FD (MIC-MICc fold decrease): fold decrease of inhibitor MIC
Protocol: as §2

Candida albicans [7] = experiment: checkerboard drug interaction (FICI, MICc);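 for all read-outs here: antifungal plus FPPS inhibitor combinations on Candida albicans tested by a simplified diagonal checkerboard screen, with FICI calculated under the Loewe additivity model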; format: cell-based; settings: C. albicans; for INH FD (MIC-MICc fold decrease): fold decrease of inhibitor MIC
Protocol: as §2

Aspergillus flavus [8] = experiment: checkerboard drug interaction (FICI, MICc);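 note: simplified diagonal checkerboard screen pairing azole antifungals with FPPS inhibitors, FICI calculated under the Loewe additivity model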; format: cell-based; parameters: INH MICc (KET:INH) / INH MICc (FLC:INH): unit not given beside the values; settings: A. flavus
Aspergillus fumigatus [9] = experiment: checkerboard drug interaction (FICI, MICc); format: cell-based;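 note: simplified diagonal checkerboard screen pairing antifungals with FPPS inhibitors against Aspergillus fumigatus, with FICI calculated under the Loewe additivity model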
Protocol: as §2

Trichophyton rubrum [10] = experiment: checkerboard drug interaction (FICI, MICc);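 note: simplified diagonal checkerboard screen pairing azole antifungals with FPPS inhibitors, FICI calculated under the Loewe additivity model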; format: cell-based; settings: T. rubrum
Protocol: as §2

HEK-293T cells = experiment: MTT reduction cytotoxicity assay; format: cell-based; settings: Homo sapiens, HEK-293T, 72 h, MTT, 72 h
eight fungal species [11] = experiment: MIC/MFC summary across the eight fungal species of Table 1; format: cell-based
Protocol: The antifungal activity of these compounds was evaluated according to CLSI guidelines ([16]).

eight fungal species [12] = experiment: checkerboard interaction with azoles, summary across the eight species; format: cell-based; settings: geometric mean MIC in combination with azoles
From the text: Synergy between lipophilic FPPS inhibitors and azole antifungals was investigated by determining the fractional inhibitory concentration index (FICI) (Fig. 2; Table S1 Fig. S1) ([17]). […]. Derivatives PLA9 and 11, and PDA9, 11, and 12 antagonized azoles in C. albicans, C. neoformans, and C. deuterogattii, yet were largely synergistic in C. glabrata and S. cerevisiae. […].

[13] = system: Cryptococcus deuterogattii; experiment: MIC/MFC broth microdilution (CLSI); settings: Cryptococcus deuterogattii;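 note: broth microdilution per CLSI M27-Ed4. MFC is the lowest concentration yielding no colonies when MIC broths are subcultured onto SDA plates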
Protocol: as §1

Cryptococcus neoformans [14] = experiment: MIC/MFC broth microdilution (CLSI); settings: Cryptococcus neoformans;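 note: susceptibility testing followed the CLSI M27-Ed4 broth microdilution document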
Protocol: as §1

Candida glabrata [15] = experiment: MIC/MFC broth microdilution (CLSI); settings: Nakaseomyces glabratus, CBS138;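 note: broth microdilution following CLSI M27-Ed4, MFC taken as the lowest drug level yielding no growth once MIC wells were subcultured on SDA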
Protocol: as §1

Aspergillus flavus [16] = experiment: MIC/MFC broth microdilution (CLSI); settings: ATCC204304
Protocol: as §1

Aspergillus fumigatus [17] = experiment: MIC/MFC broth microdilution (CLSI); settings: ATCC204305
Protocol: as §1

Trichophyton rubrum [18] = experiment: MIC/MFC broth microdilution (CLSI); settings: Trichophyton rubrum
Protocol: as §1

[19] = FLC:INH combination, MIC of the inhibitor in combination with FLC
[20] = FLC:INH combination, fold decrease of FLC MIC
[21] = ITR:INH combination, MIC of the inhibitor in combination with ITR
[22] = ITR:INH combination, fold decrease of ITR MIC
[23] = KET:INH combination, MIC of the inhibitor in combination with KET
[24] = KET:INH combination, fold decrease of KET MIC
[25] = Fractional Inhibitory Concentration Index, fluconazole + inhibitor
[26] = Fractional Inhibitory Concentration Index, itraconazole + inhibitor
[27] = Fractional Inhibitory Concentration Index, ketoconazole + inhibitor
[28] = MIC of the inhibitor in combination with fluconazole
[29] = MIC of the inhibitor in combination with itraconazole
[30] = MIC of the inhibitor in combination with ketoconazole
[31] = MIC-MICc fold decrease of fluconazole, negative = increase
[32] = MIC-MICc fold decrease of itraconazole, negative = increase
[33] = MIC-MICc fold decrease of ketoconazole, negative = increase
[34] = MIC-MICc fold decrease of the inhibitor, with fluconazole
[35] = MIC-MICc fold decrease of the inhibitor, with itraconazole
[36] = MIC-MICc fold decrease of the inhibitor, with ketoconazole

## CCCCCCCCCCCN1CCC[C@H]1C(=O)N[C@H](CC(=O)OC)C(=O)OC [dmPDA11]
Saccharomyces cerevisiae [1]
  MFC: 128 µg/mL (≈ 310 µM)
  MIC: 64 µg/mL (≈ 155 µM)
Candida albicans [2]
  MFC: > 128 µg/mL
  MIC: > 128 µg/mL
[3]; FLC:INH combination
  FICI: 1.5
  INH FD (MIC-MICc fold decrease): 1
[3]; [19]
  INH MICc: 32
[3]; [20]
  FLC FD (MIC-MICc fold decrease): 2
[3]; ITR:INH combination
  FICI: 2
  INH FD (MIC-MICc fold decrease): 1
[3]; [21]
  INH MICc: 32
[3]; [22]
  ITR FD (MIC-MICc fold decrease): 1
[3]; KET:INH combination
  FICI: 1.13
  INH FD (MIC-MICc fold decrease): 1
[3]; [23]
  INH MICc: 32
[3]; [24]
  KET FD (MIC-MICc fold decrease): 8
Cryptococcus neoformans [4]; FLC:INH combination
  FICI: 1.5
  INH FD (MIC-MICc fold decrease): 2
Cryptococcus neoformans [4]; [19]
  INH MICc: 32
Cryptococcus neoformans [4]; [20]
  FLC FD (MIC-MICc fold decrease): 1
Cryptococcus neoformans [4]; ITR:INH combination
  FICI: 0.75
  INH FD (MIC-MICc fold decrease): 4
Cryptococcus neoformans [4]; [21]
  INH MICc: 16
Cryptococcus neoformans [4]; [22]
  ITR FD (MIC-MICc fold decrease): 2
Cryptococcus neoformans [4]; KET:INH combination
  FICI: 3
  INH FD (MIC-MICc fold decrease): 1
Cryptococcus neoformans [4]; [23]
  INH MICc: 64
Cryptococcus neoformans [4]; [24]
  KET FD (MIC-MICc fold decrease): -2
Saccharomyces cerevisiae [5]; [25]
  FICI (FLC:INH): ≥4
Saccharomyces cerevisiae [5]; [26]
  FICI (ITR:INH): 2
Saccharomyces cerevisiae [5]; [27]
  FICI (KET:INH): 1.25
Saccharomyces cerevisiae [5]; [28]
  INH MICc (FLC:INH): 256
Saccharomyces cerevisiae [5]; [29]
  INH MICc (ITR:INH): 64
Saccharomyces cerevisiae [5]; [30]
  INH MICc (KET:INH): 64
Saccharomyces cerevisiae [5]; [31]
  FLC FD (FLC:INH): -2
Saccharomyces cerevisiae [5]; [32]
  ITR FD (ITR:INH): 1
Saccharomyces cerevisiae [5]; [33]
  KET FD (KET:INH): 4
Saccharomyces cerevisiae [5]; [34]
  INH FD (FLC:INH): -4
Saccharomyces cerevisiae [5]; [35]
  INH FD (ITR:INH): 1
Saccharomyces cerevisiae [5]; [36]
  INH FD (KET:INH): 1
Candida glabrata [6]; FLC:INH combination
  FICI: ≥4
  INH FD (MIC-MICc fold decrease): 1
Candida glabrata [6]; [19]
  INH MICc: 32
Candida glabrata [6]; [20]
  FLC FD (MIC-MICc fold decrease): -2
Candida glabrata [6]; ITR:INH combination
  FICI: 1
  INH FD (MIC-MICc fold decrease): 8
Candida glabrata [6]; [21]
  INH MICc: 4
Candida glabrata [6]; [22]
  ITR FD (MIC-MICc fold decrease): 2
Candida glabrata [6]; KET:INH combination
  FICI: 2
  INH FD (MIC-MICc fold decrease): 4
Candida glabrata [6]; [23]
  INH MICc: 8
Candida glabrata [6]; [24]
  KET FD (MIC-MICc fold decrease): 1
Candida albicans [7]; FLC:INH combination
  FICI: 1.06
  INH FD (MIC-MICc fold decrease): 16
Candida albicans [7]; [19]
  INH MICc: 8
Candida albicans [7]; [20]
  FLC FD (MIC-MICc fold decrease): 1
Candida albicans [7]; ITR:INH combination
  FICI: 1.06
  INH FD (MIC-MICc fold decrease): 16
Candida albicans [7]; [21]
  INH MICc: 8
Candida albicans [7]; [22]
  ITR FD (MIC-MICc fold decrease): 1
Candida albicans [7]; KET:INH combination
  FICI: 1.06
  INH FD (MIC-MICc fold decrease): 16
Candida albicans [7]; [23]
  INH MICc: 8
Candida albicans [7]; [24]
  KET FD (MIC-MICc fold decrease): 1
Aspergillus flavus [8]; [25]
  FICI (FLC:INH): 0.75
Aspergillus flavus [8]; [26]
  FICI (ITR:INH): 1.01
Aspergillus flavus [8]; [27]
  FICI (KET:INH): 0.31
Aspergillus flavus [8]; [28]
  INH MICc (FLC:INH): 64
Aspergillus flavus [8]; [29]
  INH MICc (ITR:INH): 2
Aspergillus flavus [8]; [30]
  INH MICc (KET:INH): 16
Aspergillus flavus [8]; [31]
  FLC FD (FLC:INH): 2
Aspergillus flavus [8]; [32]
  ITR FD (ITR:INH): 1
Aspergillus flavus [8]; [33]
  KET FD (KET:INH): 4
Aspergillus flavus [8]; [34]
  INH FD (FLC:INH): 4
Aspergillus flavus [8]; [35]
  INH FD (ITR:INH): 128
Aspergillus flavus [8]; [36]
  INH FD (KET:INH): 16
Aspergillus fumigatus [9]; [25]
  FICI (FLC:INH): 1.25
Aspergillus fumigatus [9]; [26]
  FICI (ITR:INH): 0.53
Aspergillus fumigatus [9]; [27]
  FICI (KET:INH): 3
Aspergillus fumigatus [9]; [28]
  INH MICc (FLC:INH): 64
Aspergillus fumigatus [9]; [29]
  INH MICc (ITR:INH): 2
Aspergillus fumigatus [9]; [30]
  INH MICc (KET:INH): 128
Aspergillus fumigatus [9]; [31]
  FLC FD (FLC:INH): 4
Aspergillus fumigatus [9]; [32]
  ITR FD (ITR:INH): 2
Aspergillus fumigatus [9]; [33]
  KET FD (KET:INH): 1
Aspergillus fumigatus [9]; [34]
  INH FD (FLC:INH): 1
Aspergillus fumigatus [9]; [35]
  INH FD (ITR:INH): 32
Aspergillus fumigatus [9]; [36]
  INH FD (KET:INH): -2
Trichophyton rubrum [10]; [25]
  FICI (FLC:INH): ≥4
Trichophyton rubrum [10]; [26]
  FICI (ITR:INH): 2.13
Trichophyton rubrum [10]; [27]
  FICI (KET:INH): ≥4
Trichophyton rubrum [10]; [28]
  INH MICc (FLC:INH): 64
Trichophyton rubrum [10]; [29]
  INH MICc (ITR:INH): 32
Trichophyton rubrum [10]; [30]
  INH MICc (KET:INH): 128
Trichophyton rubrum [10]; [31]
  FLC FD (FLC:INH): 2
Trichophyton rubrum [10]; [32]
  ITR FD (ITR:INH): 8
Trichophyton rubrum [10]; [33]
  KET FD (KET:INH): 1
Trichophyton rubrum [10]; [34]
  INH FD (FLC:INH): -4
Trichophyton rubrum [10]; [35]
  INH FD (ITR:INH): -2
Trichophyton rubrum [10]; [36]
  INH FD (KET:INH): < -4
HEK-293T cells; HEK-293T cells, read-out: IC50
  IC50: 6.19 µg/mL (≈ 15 µM)
HEK-293T cells; read-out: HEK IC50
  IC50: 6.19 µg/mL (≈ 15 µM)
Eight fungal species [11]; across eight species, read-out: Geometric mean MFC
  MFC: 140 µg/mL (≈ 338 µM)
Eight fungal species [11]; geometric mean across eight species, read-out: GM fungal MIC
  MIC: 69.8 µg/mL (≈ 169 µM)
Eight fungal species [11]; read-out: Geometric mean MIC
  MIC: 69.8 µg/mL (≈ 169 µM)
Eight fungal species [12]
  GM fungal MICc: 25.4
[13]
  MFC: 128 µg/mL (≈ 310 µM)
  MIC: 16 µg/mL (≈ 38.8 µM)
Cryptococcus neoformans [14]
  MFC: 32 µg/mL (≈ 77.6 µM)
  MIC: 16 µg/mL (≈ 38.8 µM)
Candida glabrata [15]
  MFC: 128 µg/mL (≈ 310 µM)
  MIC: 128 µg/mL (≈ 310 µM)
Aspergillus flavus [16]
  MFC: > 128 µg/mL
  MIC: > 128 µg/mL
Aspergillus fumigatus [17]
  MFC: 128 µg/mL (≈ 310 µM)
  MIC: > 128 µg/mL
Trichophyton rubrum [18]
  MFC: > 128 µg/mL
  MIC: 16 µg/mL (≈ 38.8 µM)
